# Legend:
# [1] = target: T1, norepinephrine transporter (NET) (Homo sapiens, UniProt P23975); assay: [3H]MPP+ uptake inhibition in HEK293 cells stably expressing human NET; format: cell-based
# T1 construct: gene SLC6A2
# [2] = target: T2, dopamine transporter (DAT) (Homo sapiens, UniProt Q01959); assay: [3H]dopamine uptake inhibition in HEK293 cells stably expressing human DAT; format: cell-based
# T2 construct: gene SLC6A3
# T2 sequence (Q01959 whole entry): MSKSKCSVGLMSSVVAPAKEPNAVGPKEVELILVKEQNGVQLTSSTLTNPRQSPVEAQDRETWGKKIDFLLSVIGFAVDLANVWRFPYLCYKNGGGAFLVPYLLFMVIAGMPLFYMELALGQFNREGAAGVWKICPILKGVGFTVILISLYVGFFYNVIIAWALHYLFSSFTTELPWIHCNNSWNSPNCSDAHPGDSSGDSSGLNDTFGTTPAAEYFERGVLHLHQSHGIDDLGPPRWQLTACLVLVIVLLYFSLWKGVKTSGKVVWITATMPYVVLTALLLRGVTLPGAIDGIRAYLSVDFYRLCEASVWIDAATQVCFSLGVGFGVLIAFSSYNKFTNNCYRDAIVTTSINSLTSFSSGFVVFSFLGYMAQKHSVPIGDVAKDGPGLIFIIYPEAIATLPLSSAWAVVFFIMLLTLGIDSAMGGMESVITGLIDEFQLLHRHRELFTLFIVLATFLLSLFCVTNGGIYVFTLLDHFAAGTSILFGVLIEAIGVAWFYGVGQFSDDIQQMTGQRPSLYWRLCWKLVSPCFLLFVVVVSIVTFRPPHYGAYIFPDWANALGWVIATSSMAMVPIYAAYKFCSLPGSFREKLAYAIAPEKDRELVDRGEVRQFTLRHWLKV
# T1 sequence (P23975 whole entry): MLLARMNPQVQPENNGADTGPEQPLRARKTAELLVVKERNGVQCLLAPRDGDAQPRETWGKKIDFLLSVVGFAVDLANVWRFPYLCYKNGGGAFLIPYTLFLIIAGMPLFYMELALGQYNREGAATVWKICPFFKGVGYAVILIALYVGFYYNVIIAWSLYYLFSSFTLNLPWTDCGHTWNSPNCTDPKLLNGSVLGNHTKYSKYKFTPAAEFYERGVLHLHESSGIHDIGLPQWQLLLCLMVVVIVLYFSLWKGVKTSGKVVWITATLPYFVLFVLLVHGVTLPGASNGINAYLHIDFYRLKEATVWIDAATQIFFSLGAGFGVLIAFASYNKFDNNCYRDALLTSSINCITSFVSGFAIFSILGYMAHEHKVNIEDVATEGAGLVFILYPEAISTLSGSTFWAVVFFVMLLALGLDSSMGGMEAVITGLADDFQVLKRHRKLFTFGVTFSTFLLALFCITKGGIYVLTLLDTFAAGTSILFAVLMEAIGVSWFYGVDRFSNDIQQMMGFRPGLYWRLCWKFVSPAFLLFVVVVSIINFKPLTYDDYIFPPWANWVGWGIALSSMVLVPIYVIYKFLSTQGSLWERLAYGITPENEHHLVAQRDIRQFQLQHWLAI
smiles,measurement,setting,value
"Cc1csc(C[S+]([O-])C(c2ccccc2)c2ccccc2)n1 (racemic) [CE-104, 2-(benzhydrylsulfinylmethyl)-4-methylthiazole]",IC50,[1],160 µM
same,IC50,[2],27.9 µM

# From paper PMC4761905, “A Novel Heterocyclic Compound CE-104 Enhances Spatial Working Memory in the Radial Arm Maze in Rats and Modulates the Dopaminergic System” (Frontiers in Behavioral Neuroscience, 2016)
